In PubChem BioAssay AID328 (DTP/NCI, 2004) one finds T/C data, which are given here for 22 compounds.

For the experiment, the system named is BDF1 mice, P388 leukemia ip, median survival T/C. The experiment in a line: NCI In Vivo Anticancer Drug Screen. Data for tumor model P388 Leukemia (intraperitoneal) in B6D2F1 (BDF1) mice. Particulars: endpoint: median survival time, higher = longer survival. Put shortly: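 Read-out is survival of treated animals expressed relative to the vehicle group, as a T/C ratio.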

Setting [1] is: dose: 100.0 mg/kg/injection, schedule: Q01DX009 (ip), vehicle: saline.
[2] abbreviates: dose: 100.0 mg/kg/injection, schedule: Q04DX003 (ip), vehicle: saline.
The mark [3] stands for this setting: dose: 200.0 mg/kg/injection, schedule: Q01DX009 (ip), vehicle: saline.
The mark [4] stands for this setting: dose: 200.0 mg/kg/injection, schedule: Q04DX003 (ip), vehicle: saline.
[5] abbreviates: dose: 400.0 mg/kg/injection, schedule: Q01DX009 (ip), vehicle: saline.
[6] abbreviates: dose: 400.0 mg/kg/injection, schedule: Q04DX003 (ip), vehicle: saline.
[7] abbreviates: dose: 25.0 mg/kg/injection, schedule: Q04DX003 (ip), vehicle: saline.
Where [8] appears, read: dose: 50.0 mg/kg/injection, schedule: Q01DX009 (ip), vehicle: saline with Tween-80.
Where [9] appears, read: dose: 100.0 mg/kg/injection, schedule: Q01DX009 (ip), vehicle: saline with Tween-80.
Where [10] appears, read: dose: 200.0 mg/kg/injection, schedule: Q01DX009 (ip), vehicle: saline with Tween-80.
The mark [11] stands for this setting: dose: 100.0 mg/kg/injection, schedule: Q04DX003 (ip), vehicle: saline with Tween-80.
Setting [12] is: dose: 200.0 mg/kg/injection, schedule: Q04DX003 (ip), vehicle: saline with Tween-80.
Where [13] appears, read: dose: 400.0 mg/kg/injection, schedule: Q01DX009 (ip), vehicle: saline with Tween-80.
Where [14] appears, read: dose: 400.0 mg/kg/injection, schedule: Q04DX003 (ip), vehicle: saline with Tween-80.
[15] abbreviates: dose: 50.0 mg/kg/injection, schedule: Q04DX003 (ip), vehicle: Klucel (hydroxypropylcellulose) (HPC).
The mark [16] stands for this setting: dose: 100.0 mg/kg/injection, schedule: Q04DX003 (ip), vehicle: Klucel (hydroxypropylcellulose) (HPC).
Where [17] appears, read: dose: 200.0 mg/kg/injection, schedule: Q04DX003 (ip), vehicle: Klucel (hydroxypropylcellulose) (HPC).
The mark [18] stands for this setting: dose: 400.0 mg/kg/injection, schedule: Q04DX003 (ip), vehicle: Klucel (hydroxypropylcellulose) (HPC).
Where [19] appears, read: dose: 25.0 mg/kg/injection, schedule: Q01DX009 (ip), vehicle: saline.

“And” between values parts separate entries of the source, which are not always exact repeats. Equal entries are not always repeated. Inconclusive results and toxic doses are left out.

For the compound `Nc1ccn[nH]1`, the T/C is 100 % of control under setting [1]; 100 % of control under setting [2]; 100 % of control under setting [3]; 109 % of control under setting [4]; 118 % of control under setting [5]; 122 % of control under setting [6].
`CC(=O)/C=C/c1ccc2c(c1)OCO2`: the T/C reads like this: under setting [7], 105 % of control; (dose: 50.0 mg/kg/injection, schedule: Q04DX003 (ip), vehicle: saline) 103 % of control; under setting [2], 102 % of control and 114 % of control; under setting [4], 100 % of control and 108 % of control and 122 % of control; (dose: 300.0 mg/kg/injection, schedule: Q04DX003 (ip), vehicle: saline) 100 % of control and 103 % of control; under setting [6], 91 % of control and 94 % of control. Besides, for the setting “dose: 500.0 mg/kg/injection, schedule: Q04DX003 (ip), vehicle: saline”, the T/C is 106 % of control and 109 % of control.
Consider `OCCNCc1ccccc1`, for which the T/C runs as follows: (dose: 100.0 mg/kg/injection, schedule: Q04DX003 (ip), vehicle: water) 100 % of control; (dose: 400.0 mg/kg/injection, schedule: Q04DX003 (ip), vehicle: water) 113 % of control.
`CCOC(=O)C1CC2(CCC1N)c1ccccc1-c1ccccc12` (stereo not given): the T/C runs as follows: under setting [8], 102 % of control; under setting [9], 99 % of control; under setting [10], 108 % of control.
With `COc1cccc(OC)c1-c1oc2ccccc2c(=O)c1O`, the T/C under setting [9] was 107 % of control; the T/C under setting [11] was 104 % of control; the T/C under setting [10] is 100 % of control; the T/C under setting [12] is 109 % of control; the T/C under setting [13] was 100 % of control; the T/C under setting [14] is 100 % of control.
On to `O=C1c2ccccc2C(=O)c2c(NCCOCCO)ccc(NCCOCCO)c21`, for which the T/C reads like this: (dose: 25.0 mg/kg/injection, schedule: Q01DX005 (ip), vehicle: saline with Tween-80) 98 % of control; (dose: 50.0 mg/kg/injection, schedule: Q01DX005 (ip), vehicle: saline with Tween-80) 94 % of control; (dose: 100.0 mg/kg/injection, schedule: Q01DX005 (ip), vehicle: saline with Tween-80) 90 % of control; (dose: 200.0 mg/kg/injection, schedule: Q01DX005 (ip), vehicle: saline with Tween-80) 102 % of control.
On to `CCCCN(C)N=Nc1ccccc1C(N)=O`, for which the T/C runs as follows: under setting [15], 100 % of control; under setting [9], 120 % of control; under setting [16], 97 % of control; under setting [17], 109 % of control; under setting [18], 103 % of control.
With `CSC1C(=O)Nc2cccc(C#N)c21` (stereo not given), the T/C by setting is: (dose: 50.0 mg/kg/injection, schedule: Q04DX002 (ip), vehicle: saline with Tween-80) 102 % of control; (dose: 100.0 mg/kg/injection, schedule: Q04DX002 (ip), vehicle: saline with Tween-80) 98 % of control; (dose: 200.0 mg/kg/injection, schedule: Q04DX002 (ip), vehicle: saline with Tween-80) 102 % of control.
With `N=c1ccn2c(n1)OC1C(O)C(CO)OC12` (stereo not given), the T/C is, setting by setting: (dose: 39.0 mg/kg/injection, schedule: Q01DX008 (ip), vehicle: water) 173 % of control; (dose: 65.0 mg/kg/injection, schedule: Q01DX008 (ip), vehicle: water) 99 % of control; (dose: 108.0 mg/kg/injection, schedule: Q01DX008 (ip), vehicle: water) 224 % of control; (dose: 180.0 mg/kg/injection, schedule: Q01DX008 (ip), vehicle: water) 207 % of control; (dose: 300.0 mg/kg/injection, schedule: Q01DX008 (ip), vehicle: water) 213 % of control; (dose: 500.0 mg/kg/injection, schedule: Q01DX008 (ip), vehicle: water) 225 % of control.
For `C=CC(COC(C)=O)N1CC1` (stereo not given), the T/C by setting is: (dose: 4.0 mg/kg/injection, schedule: Q01DX009 (ip), vehicle: saline) 104 % of control; (dose: 6.0 mg/kg/injection, schedule: Q01DX009 (ip), vehicle: saline) 115 % of control; (dose: 8.0 mg/kg/injection, schedule: Q01DX009 (ip), vehicle: saline) 112 % of control; (dose: 12.0 mg/kg/injection, schedule: Q04DX003 (ip), vehicle: saline) 110 % of control; (dose: 17.0 mg/kg/injection, schedule: Q01DX009 (ip), vehicle: saline) 116 % of control; under setting [19], 150 % of control and 165 % of control. Besides, the T/C reads like this: under setting [7], 120 % of control; (dose: 37.0 mg/kg/injection, schedule: Q01DX009 (ip), vehicle: saline) 180 % of control.
As for `C[CH2][Sn]([CH2]C)([O]S(=O)(=O)CC12CCC(CC1=O)C2(C)C)[O]S(=O)(=O)CC12CCC(CC1=O)C2(C)C`, the T/C runs as follows: (dose: 12.5 mg/kg/injection, schedule: Q01DX009 (ip), vehicle: saline) 173 % of control; under setting [19], 195 % of control.
In the case of `CCOCCc1ccccn1`, the T/C is 100 % of control under setting [1], 104 % of control under setting [3] and 122 % of control under setting [5].
On to `Cc1ccc(CNc2ccc([N+](=O)[O-])cc2)cc1`, for which the T/C is 104 % of control under setting [8], 90 % of control under setting [9] and 104 % of control under setting [10].
As for `COc1ccc(NC2=CC(C)(C(=O)O)OC2=O)cc1` (stereo not given), the T/C under setting [9] was 100 % of control; the T/C under setting [11] was 100 % of control; the T/C under setting [10] is 91 % of control; the T/C under setting [12] is 110 % of control; the T/C under setting [13] was 108 % of control; the T/C under setting [14] was 115 % of control.
On to `Cc1ncc([N+](=O)[O-])n1CCN/C=C/C#N`, for which the T/C runs as follows: under setting [11], 111 % of control; under setting [12], 123 % of control; under setting [14], 120 % of control.
Regarding `CC(=O)n1cc(C2CC(=O)OC3=C2CC(=O)C(C)(C)C3)c2ccccc21` (stereo not given), the T/C runs as follows: (dose: 50.0 mg/kg/injection, schedule: Q04DX003 (ip), vehicle: saline with Tween-80) 100 % of control; under setting [11], 88 % of control and 95 % of control; under setting [12], 94 % of control and 95 % of control; under setting [14], 94 % of control and 96 % of control.
As to `CCN(CC)c1ccc(/C=C/c2ccncc2)cc1`, the T/C under setting [16] is 100 % of control, the T/C under setting [17] is 100 % of control and the T/C under setting [18] was 109 % of control.
Regarding `O=C1C=CC(=C(c2ccccc2)c2ccccc2)C=C1`, the T/C is 95 % of control (dose: 12.5 mg/kg/injection, schedule: Q04DX003 (ip), vehicle: Klucel (hydroxypropylcellulose) (HPC)); 100 % of control (dose: 25.0 mg/kg/injection, schedule: Q04DX003 (ip), vehicle: Klucel (hydroxypropylcellulose) (HPC)); 91 % of control under setting [15].
As for `COc1cc2c3c(c4ccc(OC)c(OC)c4c2cc1OC)CN1CCC[C@@H]1C3`, the T/C runs as follows: (dose: 1.25 mg/kg/injection, schedule: Q01DX010 (ip), vehicle: saline) 113 % of control; (dose: 2.5 mg/kg/injection, schedule: Q01DX010 (ip), vehicle: saline) 154 % of control; (dose: 6.0 mg/kg/injection, schedule: Q01DX010 (ip), vehicle: water) 150 % of control; (dose: 8.0 mg/kg/injection, schedule: Q01DX010 (ip), vehicle: water) 170 % of control; (dose: 10.0 mg/kg/injection, schedule: Q01DX010 (ip), vehicle: saline) 150 % of control; (dose: 10.0 mg/kg/injection, schedule: Q01DX010 (ip), vehicle: water) 90 % of control.
With `Cc1cc2nc3c(nc2cc1C)-c1ccccc1C3=O`, the T/C is, setting by setting: under setting [11], 110 % of control; under setting [12], 100 % of control; under setting [14], 100 % of control.
With `Oc1c(Cl)cc(Cl)cc1C1N2CCCCC2C2c3cccn3-c3ccccc3N21` (stereo not given), the T/C is, setting by setting: (dose: 50.0 mg/kg/injection, schedule: Q01DX009 (ip), vehicle: Klucel (hydroxypropylcellulose) (HPC)) 93 % of control; (dose: 100.0 mg/kg/injection, schedule: Q01DX009 (ip), vehicle: Klucel (hydroxypropylcellulose) (HPC)) 90 % of control.
As for `NC(=S)N/N=C/c1ccc(N)cn1`, the T/C runs as follows: (dose: 3.13 mg/kg/injection, schedule: Q01DX009 (ip), vehicle: saline with Tween-80) 160 % of control; (dose: 6.25 mg/kg/injection, schedule: Q01DX009 (ip), vehicle: saline with Tween-80) 172 % of control and 211 % of control.
